# Where two headings read alike, the source gives them in different places.
# Tests used:
# [1] = tested on: E. coli S30 extract (bacterial protein synthesis); experiment: E. coli S30 extract coupled transcription-translation luciferase assay (inhibition of bacterial protein synthesis); format: biochemical; conditions: read-out: S30 IC50 (μM/% inhib.)
# Summary of the method: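 Coupled transcription-translation in E. coli S30 circular-DNA extract expressing luciferase from pBESTluc, with 8-point 2-fold compound dilutions; 1 hour at 37 °C, stopped at 4 °C. Luminescence read; % inhibition versus no-inhibitor wells, no-DNA wells as background.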
# [2] = molecular target: Rabbit Reticulocyte Lysate (eukaryotic protein synthesis); experiment: Rabbit reticulocyte lysate luciferase assay (inhibition of eukaryotic protein synthesis); format: biochemical; conditions: read-out: Rabbit reticulocyte IC50 (μM/% inhib.)
# Summary of the method: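 In vitro translation of luciferase control RNA in nuclease-treated rabbit reticulocyte lysate with amino acid mixture, compounds in 2-fold serial dilution, 90 minutes at 30° C. Luminescence read after luciferase reagent; % inhibition relative to water no-inhibitor controls, with no-RNA background wells.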
# [3] = tested on: A. baumannn (Ab); experiment: Broth microdilution minimum inhibitory concentration (MIC), CLSI; format: cell-based; conditions: read-out: Ab + bicarb MIC
# Summary of the method: (§1)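 Modified CLSI method: CAMHB (± bicarbonate 6.25/25 mM or 0-50% human serum), 8-point two-fold series, triplicates, 5×10^4 CFU/well.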
# [4] = tested on: E. coli (Ec); experiment: as above; format: cell-based; conditions: Escherichia coli, read-out: E. coli + bicarb MIC
# Summary of the method: as §1
# [5] = tested on: E. faecalis (Ef); experiment: as above; format: cell-based; conditions: for MIC: Enterococcus faecalis, read-out: Ef + bicarb MIC
# Summary of the method: as §1
# [6] = tested on: P. aeruginosa (Pa); experiment: as above; format: cell-based; conditions: Pseudomonas aeruginosa, read-out: Pa MIC + bicarb
# Summary of the method: as §1
# [7] = tested on: S. aureus (Sa); experiment: as above; format: cell-based; conditions: Staphylococcus aureus, read-out: Sa + bicarb MIC
# Summary of the method: as §1
# [8] = A. baumannn, growth medium with sodium bicarbonate
# [9] = growth medium with sodium bicarbonate
# [10] = class by IC50 or % inhibition @ 1 μM
# [11] = growth medium supplemented with sodium bicarbonate
smiles,measurement,setting,value
CC(Cc1ccc(-n2ccc(NC(=O)N3CCN(C(=O)C(C)(C)N)CC3)nc2=O)cc1)N1CCC2(CC(N)C2)C1 (stereo not drawn) [Compound 225],IC50,[1]; % inhibition @ 1 μM,0.5 to 1 µM
same,IC50,[2]; % inhibition @ 1 μM,≥ 1 µM
same,MIC,[3]; [8],> 32 µg/mL
same,MIC,[4]; [9],< 8 µg/mL
same,Ef + bicarb MIC,[5]; [9],+++ (An MIC value (μg/mL) that is less than 8 μg/mL)
same,MIC,[6]; [9],> 32 µg/mL
same,MIC,[7]; [9],< 8 µg/mL
CCN(Cc1ccc(-n2ccc(NC(=O)N3CCN(C(=O)C(C)(C)N)CC3)nc2=O)cc1)C12CCC(N)(CC1)CC2 [Compound 172],IC50,[1]; % inhibition @ 1 μM,< 0.5 µM
same,IC50,[2]; % inhibition @ 1 μM,≥ 1 µM
same,MIC,[3]; [8],8 to 32 µg/mL
same,MIC,[4]; [9],< 8 µg/mL
same,MIC,[5]; [9],< 8 µg/mL
same,MIC,[6]; [9],> 32 µg/mL
same,MIC,[7]; [9],< 8 µg/mL
CC(C)[C@H](N)C(=O)N1CCN(C(=O)Nc2ccn(-c3ccc(CC(C)N4C[C@@H]5[C@@H](CN)[C@@H]5C4)cc3)c(=O)n2)CC1 (stereo partly drawn) [Compound 223],IC50,[1]; % inhibition @ 1 μM,< 0.5 µM
same,IC50,[2]; % inhibition @ 1 μM,≥ 1 µM
same,MIC,[3]; [8],> 32 µg/mL
same,MIC,[4]; [9],< 8 µg/mL
same,MIC,[5]; [9],< 8 µg/mL
same,MIC,[6]; [9],> 32 µg/mL
same,MIC,[7]; [9],< 8 µg/mL
CC(C)(N)C(=O)N1C[C@H]2CN(C(=O)Nc3ccn(-c4ccc(CN5C[C@@H]6[C@@H](N)[C@@H]6C5)cc4)c(=O)n3)C[C@H]2C1 [Compound 246],IC50,[1]; % inhibition @ 1 μM,≥ 1 µM
same,IC50,[2]; % inhibition @ 1 μM,≥ 1 µM
same,MIC,[3]; [8],> 32 µg/mL
same,MIC,[4]; [9],> 32 µg/mL
same,MIC,[5]; [9],> 32 µg/mL
same,MIC,[6]; [9],> 32 µg/mL
same,MIC,[7]; [9],> 32 µg/mL
CC(C)(N)C(=O)N1CCN(C(=O)Nc2ccn(-c3ccc(CN4CC5(CC(N)C5)C4)cc3)c(=O)n2)CC1 [Compound 34],IC50,[1]; [10],< 0.5 µM
same,IC50,[2]; [10],≥ 1 µM
same,MIC,[3]; Acinetobacter baumannii,> 32 µg/mL
same,MIC,[4]; [11],< 8 µg/mL
same,MIC,[5]; [11],8 to 32 µg/mL
same,MIC,[6]; [11],> 32 µg/mL
same,MIC,[7]; [11],< 8 µg/mL
CC(COc1ccc(-n2ccc(NC(=O)N3CCN(C(=O)C(C)(C)N)CC3)nc2=O)cc1)N1C[C@@H]2[C@@H](CN)[C@@H]2C1 (stereo partly drawn) [Compound 188],IC50,[1]; % inhibition @ 1 μM,< 0.5 µM
same,IC50,[2]; % inhibition @ 1 μM,≥ 1 µM
same,MIC,[3]; [8],8 to 32 µg/mL
same,MIC,[4]; [9],< 8 µg/mL
same,MIC,[5]; [9],< 8 µg/mL
same,MIC,[6]; [9],8 to 32 µg/mL
same,MIC,[7]; [9],< 8 µg/mL
CC(C)(N)C(=O)N1CCN(C(=O)Nc2ccn(-c3ccc(CN4CC[C@H]5[C@H](N)[C@H]5C4)cc3)c(=O)n2)CC1 [Compound 30],IC50,[1]; [10],< 0.5 µM
same,IC50,[2]; [10],≥ 1 µM
same,MIC,[3]; Acinetobacter baumannii,8 to 32 µg/mL
same,MIC,[4]; [11],< 8 µg/mL
same,MIC,[5]; [11],< 8 µg/mL
same,MIC,[6]; [11],8 to 32 µg/mL
same,MIC,[7]; [11],< 8 µg/mL
CC(Cc1ccc(-n2ccc(NC(=O)N3CCN(C(=O)C(C)(C)CN)CC3)nc2=O)cc1)N1C[C@@H]2[C@@H](CN)[C@@H]2C1 (stereo partly drawn) [Compound 233],IC50,[1]; % inhibition @ 1 μM,≥ 1 µM
same,IC50,[2]; % inhibition @ 1 μM,≥ 1 µM
same,MIC,[3]; [8],> 32 µg/mL
same,MIC,[4]; [9],< 8 µg/mL
same,MIC,[5]; [9],8 to 32 µg/mL
same,MIC,[6]; [9],> 32 µg/mL
same,MIC,[7]; [9],< 8 µg/mL
CCC(Cc1ccc(-n2ccc(NC(=O)N3CCN(C(=O)C(C)(C)N)CC3)nc2=O)cc1)N1C[C@@H]2[C@@H](CNC)[C@@H]2C1 (stereo partly drawn) [Compound 221],IC50,[1]; % inhibition @ 1 μM,≥ 1 µM
same,IC50,[2]; % inhibition @ 1 μM,≥ 1 µM
same,MIC,[3]; [8],< 8 µg/mL
same,MIC,[4]; [9],< 8 µg/mL
same,MIC,[5]; [9],< 8 µg/mL
same,MIC,[6]; [9],> 32 µg/mL
same,MIC,[7]; [9],< 8 µg/mL
CC(C)(N)C(=O)N1CCN(C(=O)Nc2ccn(-c3ccc(CN4C[C@@H]5[C@@H](N)[C@@H]5C4)cc3)c(=O)n2)CC1 [Compound 65],IC50,[1]; [10],< 0.5 µM
same,IC50,[2]; [10],≥ 1 µM
same,MIC,[3]; Acinetobacter baumannii,8 to 32 µg/mL
same,MIC,[4]; [11],< 8 µg/mL
same,MIC,[5]; [11],< 8 µg/mL
same,MIC,[6]; [11],> 32 µg/mL
same,MIC,[7]; [11],< 8 µg/mL
CC(C)(N)C(=O)N1CCN(C(=O)Nc2ccn(-c3ccc(C[C@H](N)NN4C[C@@H]5[C@@H](N)[C@@H]5C4)cc3)c(=O)n2)CC1 [Compound 178],IC50,[1]; % inhibition @ 1 μM,≥ 1 µM
same,IC50,[2]; % inhibition @ 1 μM,≥ 1 µM
same,MIC,[3]; [8],> 32 µg/mL
same,MIC,[4]; [9],> 32 µg/mL
same,MIC,[5]; [9],> 32 µg/mL
same,MIC,[6]; [9],> 32 µg/mL
same,MIC,[7]; [9],> 32 µg/mL
CC(C)(N)C(=O)N1CCN(C(=O)Nc2ccn(-c3ccc(CCN4CCC5(CC4)CC5N)cc3)c(=O)n2)CC1 (stereo not drawn) [Compound 94],IC50,[1]; [10],< 0.5 µM
same,IC50,[2]; [10],≥ 1 µM
same,MIC,[3]; Acinetobacter baumannii,> 32 µg/mL
same,MIC,[4]; [11],< 8 µg/mL
same,MIC,[5]; [11],8 to 32 µg/mL
same,MIC,[6]; [11],8 to 32 µg/mL
same,MIC,[7]; [11],< 8 µg/mL

# Source: patent US12692253B2, “Antimicrobial compounds and methods” (Curza Global, LLC, priority 2019, dated 2026)
